Experimental findings from patent publication US6582680B2, “Acid resistant film forming dental composition and method of use” (priority 1999, dated 2003) are described below.

Structures can show the parent of a compound that is named as a salt.

This experiment concerns dentin postoperative hypersensitivity of human teeth. Put plainly: Clinical evaluation of post-operative dentin hypersensitivity in amalgam restoration patients. The format is in vivo. Here is the method:
Prior to anesthesia for pre-treatment evaluation and during the first week of treatment, the patients completed a questionnaire on pain. The patients were also evaluated post-operatively at one, three and six weeks. […] Only patients who had elected amalgam restoration procedures at UAB were employed for this study. Each tooth received a pre anesthesia evaluation for dentin postoperative hypersensitive with a cold stimulus and air jet for thermal testing. For cold-ice testing, plastic needle covers were filled with water and frozen in a refrigerator freezer for uses as the standardized cold stimulus. For air stimulation, the standardized baseline air jet from a syringe was used to direct a blast of air at the offending tooth and defective restoration. A randomized number chart was employed to select teeth for either the Copalite® varnish controls or teeth to be treated with the product of the present invention, potassium oxalate dihydrate. Following pre operative data collection and anesthesia, each tooth then received a routine intracoronal Class-I or Class-II cavity preparations. […] Following cavity preparation, rinsing and gentle air drying, the entire preparation surface was treated with the Copalite® varnish without modification or removal of the smear layer. Each control cavity was treated with three layers of copal varnish and each layer gently air dispersed with a chip syringe before the following Copalite® coat was applied. […] The patient was also evaluated for postoperative hypersensitivity at one, three and six weeks post-operatively. […] Thermal tests for ice and an air jet were administered and data recorded as for all of the previous tests. For base line data, each patient was evaluated for pain or sensitivity to cold and air prior to their treatment in this study. […] All data was analyzed by one-way Analysis of Variance (ANOVA) at the 0.05 level depending on the cell sizes in our contingency table of treatments versus responses. […] Responses from each of the patients were recorded on separate sheets and then tabulated onto the master sheet according to the identified criteria. The raw data were recorded from the McGill Visual Analog Scale (MVAS) evaluation sheets. Data were recorded from all patients experiencing none, some or severe post-operative hypersensitivity based on the patient responses at the various intervals, preoperative at 0 days, and post treatment […]. […] The date for each of the McGill VA scales were tabulated and recorded on a separate sheet with the patient's name and clinical record number-as a 10 centimeter straight line with no identifying marks along its axis.

For `O=C(O)C(=O)O` [potassium oxalate dihydrate, oxalate acid potassium salt, dihydrate 99%], the “patients pain free following the first procedure” value (MVA survey, post-operative) amounted to 88.5%. Moreover, the “reduction in post-operative pain (collective MVA scale data)” value (McGill Visual Analog Scale, treated teeth) is “dramatic reduction”. Further, the “overall pain reduction for the cold discriminator measurement” value (cold stimulus, compared with Copalite) is reported as “greater reduction”. Moreover, the “reduction in sensitivity / reported pain to the various stimuli (especially cold), in response to direct questioning” value (patients, post-operatively after amalgam restoration) stood at 80.3%.
